US12577242B2, “Pyrrolopyridine and imidazopyridine antiviral compounds” (KATHOLIEKE UNIVERSITEIT LEUVEN, priority 2020, dated 2026)

Assays:
[1] = system: Bovine viral diarrhea (BVD) virus; test: Anti-BVDV CPE inhibition assay in MDBK cells; details: for SI (selectivity index, ratio of CC50 and EC50): CC50/EC50, MDBK cells, BVD virus
[2] = system: classical swine fever virus (CSFV) strain Alfort 187; test: microbe, parasite or virus in culture; format: cell-based; details: PK-15, in Sus scrofa, 48 h
[3] = system: BVDV type 2 strain 1373; details: 5 mg/kg i.v. 2x daily; for Animals showing signs of dehydration / Samples virus isolation positive for BVDV in total / Adverse side effects on serial complete blood cell counts or serum chemistry panels / Period in which leukopenia (<5000 leukocytes/μL) was seen / Adverse drug reactions on daily clinical monitoring / Clinical scores compared to calves receiving diluent only: 10 days; for Buffy coat samples virus isolation positive: Days 6-10, 20 samples per group; for Samples virus isolation positive for BVDV in total: all sample types and time points; for Nasal swab samples virus isolation positive: by Day 12, 28 samples per group; for Adverse side effects on serial complete blood cell counts or serum chemistry panels / Period in which leukopenia (<5000 leukocytes/μL) was seen / Adverse drug reactions on daily clinical monitoring: calves; for Adverse drug reactions on daily clinical monitoring: Day 0 to Day 28; for Clinical scores compared to calves receiving diluent only: composite of dehydration, appearance, appetite, diarrhea
[4] = Cytotoxicity in MDBK cells (no BVD virus added); details: bovine, MDBK cells (Madin-Darby bovine kidney), no virus added
[5] = system: MDBK cells (Madin-Darby bovine kidney); test: Cytotoxicity in MDBK cells (no BVD virus added); details: MDBK cells, no virus, 50% toxic effects
[6] = Bovine viral diarrhea virus isolates and strains, MDBK, in Bos taurus, 96 h

Structure (SMILES)	EC50 [1, 6] [nM]	SI (selectivity index, ratio of CC50 and EC50) [1]	EC50 [2] [nM]	Animals showing signs of dehydration [3]	Buffy coat samples virus isolation positive [3] [%]	Samples virus isolation positive for BVDV in total [3] [samples]	Nasal swab samples virus isolation positive [3] [%]	Adverse side effects on serial complete blood cell counts or serum chemistry panels [3]	Period in which leukopenia (<5000 leukocytes/μL) was seen [3] [days]	Adverse drug reactions on daily clinical monitoring [3]	Clinical scores compared to calves receiving diluent only [3]	CC50 at 4 days [4] [nM]	EC50 ([1]; BVD virus approx. 100 TCID50, MDBK cells, four days, 50% inhibition of CPE) [nM]	CC50 [5] [nM]
Cc1c(-c2nc3ccn(Cc4cc(-c5cc(F)ccc5F)no4)cc-3n2)cnn1C [CPD-7, 3-(2,5-difluorophenyl)-5-((2-(1,5-dimethyl-1H-pyrazol-4-yl)-5H-imidazo[4,5-c]pyridin-5-yl)methyl)isoxazole]	53 ± 25	4000	1300 ± 500	None	50	28	29	No evidence of adverse side effects	6 to 12	No signs of adverse drug reactions were observed	attenuated clinical scores	212000	–	–
Cc1ccc2nc(Cn3ccc4nc(-c5cn(C)nc5C)nc-4c3)sc2c1 [CPD-10, 2-((2-(1,3-dimethyl-1H-pyrazol-4-yl)-5H-imidazo[4,5-c]pyridin-5-yl)methyl)-6-methylbenzo[d]thiazole]	80 ± 32	2888	4300 ± 1900	None	55	32	43	No evidence of adverse side effects	6 to 8	No signs of adverse drug reactions were observed	attenuated clinical scores	231000	–	–
OCc1ccccc1-c1cc2ccn(Cn3nnc4ccccc43)cc-2n1 [Compound V, [2-(6-((1H-Benzotriazol)-1-yl)methyl-6H-pyrrolo[2,3-c]pyridin-2-yl)-phenyl]-methanol]	–	–	–	–	–	–	–	–	–	–	–	–	81 ± 1	> 50000
